Measured values: patent US12122761B2, “2-azaspiro[3.4]octane derivatives as M4 agonists” (NOVARTIS AG, priority 2019, dated 2024)

Molecular target: T1, Cloned human M1 receptor (CHRM1) stably expressed in HEK293 cells (Homo sapiens, UniProt P11229)
T1 construct: expressed in transfected cells; host or cells: HEK293
T1 sequence (P11229 1-460): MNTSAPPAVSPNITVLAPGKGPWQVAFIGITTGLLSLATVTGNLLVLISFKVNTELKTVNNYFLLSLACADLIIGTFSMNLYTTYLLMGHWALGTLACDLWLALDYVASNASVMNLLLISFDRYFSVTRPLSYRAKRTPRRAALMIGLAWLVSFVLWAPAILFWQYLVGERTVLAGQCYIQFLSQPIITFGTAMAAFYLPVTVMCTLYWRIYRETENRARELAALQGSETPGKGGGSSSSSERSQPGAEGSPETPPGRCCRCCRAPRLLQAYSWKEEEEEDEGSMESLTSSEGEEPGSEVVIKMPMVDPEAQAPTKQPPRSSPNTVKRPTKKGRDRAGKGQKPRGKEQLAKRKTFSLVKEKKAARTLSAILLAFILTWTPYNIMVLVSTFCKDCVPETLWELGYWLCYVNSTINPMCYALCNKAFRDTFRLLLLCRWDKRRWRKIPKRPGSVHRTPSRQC
Assay: CHRM1 Ca++ Flux Assay (agonist mode, FDSS 7000EX)
Assay type: cell-based
Conditions: for M1 FDSS PA: Percent Activity; for EC50: geometric mean if tested more than once
Protocol: The above examples were characterized by measuring the intracellular mobilization of Ca++ ions caused by signaling events mediated by the receptor. The Intra-cellular Calcium flux levels were captured by the highly sensitive Ca++ indicator, Calcium Assay Kit (BD Biosciences, Catalog Number 640178). The fluorescent activity from all receptors were monitored by the fluorescent imager, FDSS 7000EX (Hamamatsu) over a span of 3 minutes.
Cloned human M1 receptor (CHRM1) was stably expressed in HEK293 cells and were grown and maintained in a monolayer culture with DMEM/High Glucose (Life Technologies) supplemented with 10% Fetal Bovine Serum, 1× Pen-Strep, and 0.5 mg/mL Geneticin in a humidified atmosphere (5% CO2) at 37° C. The cultures were grown to 90% confluency in T150 flasks (Corning) and washed with 1×DPBS and lifted with 0.05% Trypsin (Life Technologies). The cells were then spun (1K rpm, 3 minutes) and frozen using Recovery Cell Culture Freezing Media (Gibco Technologies). Cells were stored in liquid nitrogen and thawed a day before the assay.
Prior to the day of the assay, stable HEK293 M1 cells were thawed and plated on 384 well black walled clear bottom TC treated plates (Greiner Cat #781091) at 25K cells/well with DMEM/High Glucose supplemented with 10% FBS (Hyclone) Pen-Strep (Life Technologies) and kept overnight in a humidified atmosphere (5% CO2) at 37° C. The following day, cells were loaded with 20 uL Ca^++ dye (BD Biosciences) using Loading Buffer (HBSS +Ca/+Mg, 20 mM HEPES) and placed back in cell incubator for a minimum of 1 hour. The dye was replaced with 45 μL Assay Buffer (HBSS −Ca/−Mg, 20 mM HEPES) and kept at room temperature prior to running on cell imager. Compounds were prepared in Assay Buffer and 5 uL was added to the cells. The FDSS 7000EX (Hamamatsu) was used to acquire Ca++ traces for 3 minutes from cells treated with 11 point dose in triplicate in order to generate dose response curves in agonist mode. All compounds were serially diluted in DMSO then prepared in Assay Buffer for Ca^++ flux studies. The dose response curves were generated from the average of triplicate wells obtained from each data point and used a non-linear regression of four parameter dose response algorithm. The Percent Activity (PA) was measured to EC100 of Carbachol.

Row | SMILES | M1 FDSS PA [%] | EC50 [nM]
1 | Cc1ncc(COc2ccccc2C2CCN([C@@H]3CCC4(C3)CN(C(=O)C3(F)CC3)C4)CC2)o1 (single isomer, unassigned) [Example 7V, (R)-(1-fluorocyclopropyl)(6-(4-(2-((2-methyloxazol-5-yl)methoxy)phenyl)piperidin-1-yl)-2-azaspiro[3.4]octan-2-yl)methanone or (S)-(1-fluorocyclopropyl)(6-(4-(2-((2-methyloxazol-5-yl)methoxy)phenyl)piperidin-1-yl)-2-azaspiro[3.4]octan-2-yl)methanone] | 18 | 2300
2 | Cc1nnc(COc2ccccc2C2CCN([C@@H]3CCC4(C3)CN(C(=O)C3(F)CC3)C4)CC2)o1 (single isomer, unassigned) [Example 7W, (R)-(1-fluorocyclopropyl)(6-(4-(2-((5-methyl-1,3,4-oxadiazol-2-yl)methoxy)phenyl)piperidin-1-yl)-2-azaspiro[3.4]octan-2-yl)methanone or (S)-(1-fluorocyclopropyl)(6-(4-(2-((5-methyl-1,3,4-oxadiazol-2-yl)methoxy)phenyl)piperidin-1-yl)-2-azaspiro[3.4]octan-2-yl)methanone] | 80 | 2
3 | Cc1nc(COc2ccccc2C2CCN([C@@H]3CCC4(C3)CN(C(=O)C3(F)CC3)C4)CC2)no1 (single isomer, unassigned) [Example 7X, (R)-(1-fluorocyclopropyl)(6-(4-(2-((5-methyl-1,2,4-oxadiazol-3-yl)methoxy)phenyl)piperidin-1-yl)-2-azaspiro[3.4]octan-2-yl)methanone or (S)-(1-fluorocyclopropyl)(6-(4-(2-((5-methyl-1,2,4-oxadiazol-3-yl)methoxy)phenyl)piperidin-1-yl)-2-azaspiro[3.4]octan-2-yl)methanone] | 86 | 3
4 | Cc1nnc(COc2ccccc2C2CCN([C@@H]3CCC4(C3)CN(C(=O)C3(F)CC3)C4)CC2)o1 (single isomer, unassigned) [Example 7Y, (R)-(1-fluorocyclopropyl)(6-(4-(2-((5-methyl-1,3,4-oxadiazol-2-yl)methoxy)phenyl)piperidin-1-yl)-2-azaspiro[3.4]octan-2-yl)methanone or (S)-(1-fluorocyclopropyl)(6-(4-(2-((5-methyl-1,3,4-oxadiazol-2-yl)methoxy)phenyl)piperidin-1-yl)-2-azaspiro[3.4]octan-2-yl)methanone] | 67 | 246
5 | Cc1nc(COc2ccccc2C2CCN([C@@H]3CCC4(C3)CN(C(=O)C3(F)CC3)C4)CC2)no1 (single isomer, unassigned) [Example 7Z, (R)-(1-fluorocyclopropyl)(6-(4-(2-((5-methyl-1,2,4-oxadiazol-3-yl)methoxy)phenyl)piperidin-1-yl)-2-azaspiro[3.4]octan-2-yl)methanone or (S)-(1-fluorocyclopropyl)(6-(4-(2-((5-methyl-1,2,4-oxadiazol-3-yl)methoxy)phenyl)piperidin-1-yl)-2-azaspiro[3.4]octan-2-yl)methanone] | 77 | 211
6 | COc1ccc(Cl)cc1C1CCN([C@H]2CCC3(C2)CN(C(=O)C2(F)CC2)C3)CC1 (single isomer, unassigned) [Example 8A, (S)-(6-(4-(5-chloro-2-methoxyphenyl)piperidin-1-yl)-2-azaspiro[3.4]octan-2-yl)(1-fluorocyclopropyl)methanone or (R)-(6-(4-(5-chloro-2-methoxyphenyl)piperidin-1-yl)-2-azaspiro[3.4]octan-2-yl)(1-fluorocyclopropyl)methanone] | 16 | 438
7 | COc1ccc(Cl)cc1C1CCN([C@H]2CCC3(C2)CN(C(=O)C2(F)CC2)C3)CC1 (single isomer, unassigned) [Example 8B, (S)-(6-(4-(5-chloro-2-methoxyphenyl)piperidin-1-yl)-2-azaspiro[3.4]octan-2-yl)(1-fluorocyclopropyl)methanone or (R)-(6-(4-(5-chloro-2-methoxyphenyl)piperidin-1-yl)-2-azaspiro[3.4]octan-2-yl)(1-fluorocyclopropyl)methanone] | 63 | 30
8 | O=C(N1CC2(CC[C@@H](N3CCC(c4ccccc4OC(F)(F)F)CC3)C2)C1)C1(F)CC1 (single isomer, unassigned) [Example 9A, (R)-(1-fluorocyclopropyl)(6-(4-(2-(trifluoromethoxy)phenyl)piperidin-1-yl)-2-azaspiro[3.4]octan-2-yl)methanone or (S)-(1-fluorocyclopropyl)(6-(4-(2-(trifluoromethoxy)phenyl)piperidin-1-yl)-2-azaspiro[3.4]octan-2-yl)methanone] | 43 | 2650
9 | O=C(N1CC2(CC[C@@H](N3CCC(c4ccccc4OC(F)(F)F)CC3)C2)C1)C1(F)CC1 (single isomer, unassigned) [Example 9B, (R)-(1-fluorocyclopropyl)(6-(4-(2-(trifluoromethoxy)phenyl)piperidin-1-yl)-2-azaspiro[3.4]octan-2-yl)methanone or (S)-(1-fluorocyclopropyl)(6-(4-(2-(trifluoromethoxy)phenyl)piperidin-1-yl)-2-azaspiro[3.4]octan-2-yl)methanone] | 55 | 47
10 | O=C(N1CC2(CC[C@@H](N3CCC(c4cc(F)ccc4OC4CCOCC4)CC3)C2)C1)C1(F)CC1 (single isomer, unassigned) [Example 9C, (R)-(6-(4-(5-fluoro-2-((tetrahydro-2H-pyran-4-yl)oxy)phenyl)piperidin-1-yl)-2-azaspiro[3.4]octan-2-yl)(1-fluorocyclopropyl)methanone or (S)-(6-(4-(5-fluoro-2-((tetrahydro-2H-pyran-4-yl)oxy)phenyl)piperidin-1-yl)-2-azaspiro[3.4]octan-2-yl)(1-fluorocyclopropyl)methanone] | 27 | 48
11 | O=C(N1CC2(CC[C@@H](N3CCC(c4cc(F)ccc4OC4CCOCC4)CC3)C2)C1)C1(F)CC1 (single isomer, unassigned) [Example 9D, (R)-(6-(4-(5-fluoro-2-((tetrahydro-2H-pyran-4-yl)oxy)phenyl)piperidin-1-yl)-2-azaspiro[3.4]octan-2-yl)(1-fluorocyclopropyl)methanone or (S)-(6-(4-(5-fluoro-2-((tetrahydro-2H-pyran-4-yl)oxy)phenyl)piperidin-1-yl)-2-azaspiro[3.4]octan-2-yl)(1-fluorocyclopropyl)methanone] | 23 | 1770
12 | O=C(N1CC2(CC[C@@H](N3CCC(c4ccccc4OC4CCOCC4)CC3)C2)C1)C1(F)CC1 (single isomer, unassigned) [Example 9E, (R)-(1-fluorocyclopropyl)(6-(4-(2-((tetrahydro-2H-pyran-4-yl)oxy)phenyl)piperidin-1-yl)-2-azaspiro[3.4]octan-2-yl)methanone or (S)-(1-fluorocyclopropyl)(6-(4-(2-((tetrahydro-2H-pyran-4-yl)oxy)phenyl)piperidin-1-yl)-2-azaspiro[3.4]octan-2-yl)methanone] | 34 | 120
